Experiments:
[1] = tested on: SUDV (glycoprotein, VSV pseudotype); test: microbe, parasite or virus in culture; assay type: cell-based, Sudan ebolavirus; settings: Vesicular stomatitis virus, Vero, 24 h, read-out: EC50 Pseudotype Assays SUDV
[2] = tested on: EBOV_FL: full-length Ebola Zaire GP (VSV pseudotype); test: microbe, parasite or virus in culture; assay type: cell-based, Zaire ebolavirus; settings: Zaire ebolavirus, Vero, 24 h, read-out: EC50 Pseudotype Assays EBOV_FL
in vitro = settings: African green monkey, Cytotox CC50
[3] = tested on: EBOV (mucin-deleted glycoprotein, VSV pseudotype); test: microbe, parasite or virus in culture; assay type: cell-based, Zaire ebolavirus; settings: Zaire ebolavirus, Vero, 24 h, read-out: EC50 Pseudotype Assays EBOV
[4] = tested on: BDBV (mucin-deleted glycoprotein, VSV pseudotype); test: microbe, parasite or virus in culture; assay type: cell-based, Bundibugyo ebolavirus; settings: Vesicular stomatitis virus, Vero, 24 h, read-out: EC50 Pseudotype Assays BDBV
[5] = tested on: MARV (full-length glycoprotein, VSV pseudotype); test: microbe, parasite or virus in culture; assay type: cell-based, Marburg marburgvirus; settings: Vesicular stomatitis virus, Vero, 24 h, read-out: EC50 Pseudotype Assays MARV
[6] = microsomes, 1 h
[7] = microsomes, 1 h; remark: listed apart in the source
[8] = microsomes, 1 h; remark: listed apart in the source
[9] = microsomes, 1 h; remark: listed apart in the source

SMILES | EC50 [1] | EC50 [2] | CC50 (in vitro) | EC50 [3] | EC50 [4] | EC50 [5] | Liver Microsome Stability % Remaining after 60 Minutes, Mouse [6] | Liver Microsome Stability % Remaining after 60 Minutes, Guinea Pig [7] | Liver Microsome Stability % Remaining after 60 Minutes, Monkey [8] | Liver Microsome Stability % Remaining after 60 Minutes, Human [9]
CCC12CC3CC(C(=O)N[C@H]4CCN[C@@H](C)C4)(C1)CC(c1ccccc1)(C3)C2 (mixture of isomers) [Example A21] | 415 nM | 20 nM | 3900 nM | 22 nM | 208 nM | 6910 nM | – | – | – | –
CCC12CC3CC(C(=O)N[C@H]4CC[C@H](CN)CC4)(C1)CC(c1ccccc1)(C3)C2 (mixture of isomers) [Example A22] | 416 nM | 10 nM | 3700 nM | 19 nM | 185 nM | 2800 nM | – | – | – | –
CCC12CC3CC(C(=O)N[C@@H]4CCNC[C@@H]4F)(C1)CC(c1ccccc1)(C3)C2 (mixture of isomers) [Example A23] | 500 nM | 20 nM | 7800 nM | 41 nM | 306 nM | 3510 nM | – | – | – | –
CCC12CC3CC(C(=O)N[C@@H]4CCNC[C@H]4O)(C1)CC(c1ccccc1)(C3)C2 (mixture of isomers) [Example A25] | 795 nM | 60 nM | 11800 nM | 41 nM | 198 nM | 8460 nM | – | – | – | –
CCC12CC3CC(C(=O)NC4(C)CCNCC4)(C1)CC(c1ccccc1)(C3)C2 (racemic) [Example A26] | 605 nM | 200 nM | 6700 nM | 130 nM | 333 nM | 2570 nM | – | – | – | –
N[C@H]1CC[C@@H](NC(=O)C23CC4CC(CF)(C2)CC(c2ccccc2)(C4)C3)CC1 (mixture of isomers) [Example A28] | 1540 nM | 140 nM | 32300 nM | 62 nM | 596 nM | > 10000 nM | – | – | – | –
CC12CC3CC(C(=O)N4CCC5(CC4)CNC5)(C1)CC(c1ccccc1)(C3)C2 (racemic) [Example A48] | 35 nM | 140 nM | 13700 nM | 14 nM | 35 nM | – | 76% | 87% | 22% | 46%
C[C@]12CC3CC(C(=O)N[C@@H]4CCNC[C@H]4F)(C1)C[C@@](c1ccccc1)(C3)C2 [Example B5] | 240 nM | 20 nM | 11900 nM | 19 nM | 174 nM | > 3000 nM | – | – | – | –
C[C@]12CC3CC(C(=O)N[C@H]4CCNC[C@@H]4F)(C1)C[C@@](c1ccccc1)(C3)C2 [Example B6] | 320 nM | 20 nM | 12200 nM | 36 nM | 193 nM | > 3000 nM | – | – | – | –
CC1(C)CN(C(=O)C23CC4C[C@@](C)(C2)C[C@](c2ccccc2)(C4)C3)CC[C@@H]1N [Example B13] | 40 nM | – | 11300 nM | 14 nM | 71 nM | – | 51% | 50% | 32% | 85%
C[C@@]12CC3CC(C(=O)N[C@H]4CC[C@H](CN)CC4)(C1)C[C@](c1ccccc1)(C3)C2 [Example C3] | 855 nM | 30 nM | 5200 nM | 73 nM | 190 nM | 3170 nM | – | – | – | –
C[C@H]1C[C@@H](NC(=O)C23CC4C[C@](C)(C2)C[C@@](c2ccccc2)(C4)C3)CCN1 [Example C4] | 1020 nM | 30 nM | 14000 nM | 78 nM | 178 nM | > 3000 nM | – | – | – | –
C[C@@]12CC3CC(C(=O)N4CCC(N)CC4)(C1)C[C@](c1ccccc1)(C3)C2 [Example C7] | 335 nM | 170 nM | 13000 nM | 124 nM | 198 nM | 8200 nM | – | – | – | –

Reference: patent US11548893B2 (priority 2017, dated 2023)
